#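 Step 1: Grow cells in 96-well plates. Step 2: Expose to compound for 48 hours at 5 concentrations. Step 3: Interpolate endpoints linearly; if unreached, use highest concentration. GI50: concentration for 50% inhibition of growth.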 Calls of active or inactive are those of the source. No stated cut-off is given here; in the data, active = GI50 up to about 1.1 µM and inactive = higher.
# Experiments:
# Assay in all cases: growth of human tumour cells (NCI), 48 h
# A498 = test system: A498
# SNB-19 = test system: SNB-19
# RXF 393 = test system: RXF 393
# U-251 = test system: U-251
# RPMI-8226 = test system: RPMI-8226
# Malme-3M = test system: Malme-3M
# CAKI-1 = test system: CAKI-1
# 786-0 = test system: 786-0
# SK-MEL-2 = test system: SK-MEL-2
# COLO 205 = test system: COLO 205
# EKVX = test system: EKVX
# UACC-257 = test system: UACC-257
# DU-145 = test system: DU-145
# OVCAR-4 = test system: OVCAR-4
# CCRF-CEM = test system: CCRF-CEM
# MOLT-4 = test system: MOLT-4
# PC-3 = test system: PC-3
# HOP-92 = test system: HOP-92
# TK-10 = test system: TK-10
# SN12C = test system: SN12C
# MDA-MB-231 = test system: MDA-MB-231
# T47D = test system: T47D
# ACHN = test system: ACHN
# A549 = test system: A549
# HCT-116 = test system: HCT-116
# MDA-MB-435 = test system: MDA-MB-435
# MCF7 = test system: MCF7
# UO-31 = test system: UO-31
# BT-549 = test system: BT-549
# SNB-75 = test system: SNB-75
# Hs-578T = test system: Hs-578T
# SK-OV-3 = test system: SK-OV-3
# HT-29 = test system: HT-29
# MDA-N = test system: MDA-N
# SF-268 = test system: SF-268
# SF-539 = test system: SF-539
# HCT-15 = test system: HCT-15
# NCI-H460 = test system: NCI-H460
# KM12 = test system: KM12
# UACC-62 = test system: UACC-62
# SW-620 = test system: SW-620
# LOX IMVI = test system: LOX IMVI
# SF-295 = test system: SF-295
# OVCAR-8 = test system: OVCAR-8
# K562 = test system: K562
# NCI-H23 = test system: NCI-H23
# SR = test system: SR
# HL-60 = test system: HL-60
# NCI-H226 = test system: NCI-H226
# NCI-H522 = test system: NCI-H522
# SK-MEL-28 = test system: SK-MEL-28
# IGROV-1 = test system: IGROV-1
# NCI/ADR-RES = test system: NCI/ADR-RES
# OVCAR-5 = test system: OVCAR-5
# HOP-62 = test system: HOP-62
# SK-MEL-5 = test system: SK-MEL-5
# OVCAR-3 = test system: OVCAR-3
# M14 = test system: M14
smiles,measurement,setting,value
Nc1cc([N+](=O)[O-])ccc1C(=O)N1CCC[C@H]1CO,GI50,A498,> 100 µM (inactive)
same,GI50,SNB-19,> 100 µM (inactive)
same,GI50,RXF 393,> 100 µM (inactive)
same,GI50,U-251,> 100 µM (inactive)
same,GI50,RPMI-8226,> 100 µM (inactive)
same,GI50,Malme-3M,> 100 µM (inactive)
same,GI50,CAKI-1,> 100 µM (inactive)
same,GI50,786-0,> 100 µM (inactive)
same,GI50,SK-MEL-2,> 100 µM (inactive)
same,GI50,COLO 205,> 100 µM (inactive)
same,GI50,EKVX,> 100 µM (inactive)
same,GI50,UACC-257,> 100 µM (inactive)
same,GI50,DU-145,> 100 µM (inactive)
same,GI50,OVCAR-4,> 100 µM (inactive)
same,GI50,CCRF-CEM,> 100 µM (inactive)
same,GI50,MOLT-4,> 100 µM (inactive)
same,GI50,PC-3,> 100 µM (inactive)
same,GI50,HOP-92,> 100 µM (inactive)
same,GI50,TK-10,> 100 µM (inactive)
same,GI50,SN12C,> 100 µM (inactive)
same,GI50,MDA-MB-231,> 100 µM (inactive)
same,GI50,T47D,90.4 µM (inactive)
same,GI50,ACHN,> 100 µM (inactive)
same,GI50,A549,> 100 µM (inactive)
same,GI50,HCT-116,> 100 µM (inactive)
same,GI50,MDA-MB-435,> 100 µM (inactive)
same,GI50,MCF7,> 100 µM (inactive)
same,GI50,UO-31,> 100 µM (inactive)
same,GI50,BT-549,> 100 µM (inactive)
same,GI50,SNB-75,> 100 µM (inactive)
same,GI50,Hs-578T,64.1 µM (inactive)
same,GI50,SK-OV-3,> 100 µM (inactive)
same,GI50,HT-29,> 100 µM (inactive)
same,GI50,MDA-N,> 100 µM (inactive)
same,GI50,SF-268,> 100 µM (inactive)
same,GI50,SF-539,> 100 µM (inactive)
same,GI50,HCT-15,> 100 µM
same,GI50,NCI-H460,> 100 µM (inactive)
same,GI50,KM12,> 100 µM (inactive)
same,GI50,UACC-62,> 100 µM (inactive)
same,GI50,SW-620,> 100 µM (inactive)
same,GI50,LOX IMVI,> 100 µM (inactive)
same,GI50,SF-295,> 100 µM (inactive)
same,GI50,OVCAR-8,> 100 µM (inactive)
same,GI50,K562,> 100 µM (inactive)
same,GI50,NCI-H23,> 100 µM (inactive)
same,GI50,SR,> 100 µM (inactive)
same,GI50,HL-60,> 100 µM (inactive)
same,GI50,NCI-H226,> 100 µM (inactive)
same,GI50,NCI-H522,> 100 µM (inactive)
same,GI50,SK-MEL-28,> 100 µM (inactive)
same,GI50,IGROV-1,> 100 µM (inactive)
same,GI50,NCI/ADR-RES,> 100 µM (inactive)
OC1C=C2C3CN(Cc4cc5c(cc43)OCO5)[C@H]2C[C@@H]1O (stereo partly specified),GI50,A498,6.87 µM (inactive)
same,GI50,SNB-19,4.62 µM (inactive)
same,GI50,RXF 393,2.54 µM (inactive)
same,GI50,U-251,4.86 µM (inactive)
same,GI50,RPMI-8226,6.93 µM (inactive)
same,GI50,Malme-3M,7.23 µM (inactive)
same,GI50,CAKI-1,3.44 µM (inactive)
same,GI50,786-0,4.12 µM (inactive)
same,GI50,SK-MEL-2,3.2 µM (inactive)
same,GI50,COLO 205,3.78 µM (inactive)
same,GI50,EKVX,4.36 µM (inactive)
same,GI50,UACC-257,2.07 µM (inactive)
same,GI50,DU-145,2.64 µM (inactive)
same,GI50,OVCAR-5,8.39 µM (inactive)
same,GI50,OVCAR-4,3.07 µM (inactive)
same,GI50,HOP-62,6.84 µM (inactive)
same,GI50,CCRF-CEM,2.34 µM (inactive)
same,GI50,MOLT-4,4.29 µM (inactive)
same,GI50,PC-3,2.19 µM (inactive)
same,GI50,HOP-92,5.31 µM (inactive)
same,GI50,TK-10,4.13 µM (inactive)
same,GI50,SN12C,5.12 µM (inactive)
same,GI50,MDA-MB-231,18.1 µM (inactive)
same,GI50,T47D,1.16 µM (inactive)
same,GI50,ACHN,2.65 µM (inactive)
same,GI50,A549,3.74 µM (inactive)
same,GI50,HCT-116,3.3 µM (inactive)
same,GI50,MDA-MB-435,3.94 µM (inactive)
same,GI50,MCF7,2.96 µM (inactive)
same,GI50,UO-31,6.3 µM (inactive)
same,GI50,BT-549,2.13 µM (inactive)
same,GI50,SNB-75,0.794 µM (active)
same,GI50,Hs-578T,26.3 µM (inactive)
same,GI50,SK-OV-3,3.82 µM (inactive)
same,GI50,SK-MEL-5,3.32 µM (inactive)
same,GI50,OVCAR-3,7.13 µM (inactive)
same,GI50,HT-29,3.69 µM (inactive)
same,GI50,MDA-N,3.89 µM (inactive)
same,GI50,SF-268,7.28 µM (inactive)
same,GI50,SF-539,16.9 µM (inactive)
same,GI50,HCT-15,4.33 µM
same,GI50,NCI-H460,2.28 µM (inactive)
same,GI50,KM12,3.86 µM (inactive)
same,GI50,UACC-62,10.6 µM (inactive)
same,GI50,SW-620,5.57 µM (inactive)
same,GI50,LOX IMVI,4.06 µM (inactive)
same,GI50,SF-295,7.38 µM (inactive)
same,GI50,OVCAR-8,5.04 µM (inactive)
same,GI50,K562,4.31 µM (inactive)
same,GI50,NCI-H23,5.96 µM (inactive)
same,GI50,SR,2.94 µM (inactive)
same,GI50,HL-60,2.61 µM (inactive)
same,GI50,NCI-H226,> 100 µM (inactive)
same,GI50,M14,4.22 µM (inactive)
same,GI50,NCI-H522,7.28 µM (inactive)
same,GI50,SK-MEL-28,11.5 µM (inactive)
same,GI50,IGROV-1,4.02 µM (inactive)
same,GI50,NCI/ADR-RES,15.7 µM (inactive)

# — ChEMBL document CHEMBL1201862, “PubChem BioAssay data set” (2004)
